# Test results taken from US9446105B2, “Chimeric antigen receptor specific for folate receptor β” (THE TRUSTEES OF THE UNIVERSITY OF PENNSYLVANIA, priority 2013, dated 2016).
# “Also recorded” adds a separate entry of the source.
# How the values were obtained:
# [1] = test system: ATRA-treated THP1; test: CAR T cell recognition of ATRA-treated AML cell lines (cytokine release); type: cell-based, human; settings: 10 nM ATRA
# Procedure: These assays were performed by co-culture of 10^5 CAR+ T cells with 10^5 target cells per well (or media alone) in triplicate in 96-well plates in a 200 μL volume of complete media. After ˜24 hours, plates were centrifuged at 1200 RPM to pellet the cells, and co-culture supernatants were removed and assayed for the presence of IFN-γ by ELISA (Biolegend). Values represent the mean of triplicate wells. IL-2, IL-4, IL-10, IFN-γ, and TNF-α cytokines were measured by flow cytometry with Cytometric Bead Array (BD Biosciences). The cell pellets were then labeled with antibodies for CD3 and CD69, and assessed by flow cytometry. Live, CD3+ gates were used for analysis of CD69 upregulation. For m909 CAR T cells, GFP was used as a marker for CAR+ cells. In some cases cell pellets were labeled for FRβ surface expression following co-cultures.
# AML cell lines were plated on d0 at 2.5×10^5 per mL in complete media with final concentration 10 nM ATRA. […] On d5 viable AML cells were washed and counted with trypan blue exclusion. Cells were then stained for FRβ surface expression and analyzed by flow cytometry, processed for RNA extraction, or used in co-cultures for functional assays.
# Cell lines and CAR+ T cells were prepared as above (for cytokine release assays). […] Culture supernatants were then collected and analyzed for cytokines as described.
# [2] = test system: FRβ expression on human AML cell lines; test: ATRA treatment of AML cell lines, FRβ surface expression by flow cytometry; type: cell-based; settings: 10 nM ATRA
# Procedure: AML cell lines were plated on d0 at 2.5×10^5 per mL in complete media with final concentration 10 nM ATRA. On d3 fresh media with 10 nM ATRA was added to keep cells at 2.5×10^5 per mL. On d5 viable AML cells were washed and counted with trypan blue exclusion. Cells were then stained for FRβ surface expression and analyzed by flow cytometry, processed for RNA extraction, or used in co-cultures for functional assays.
# Tumor cell surface expression of FRβ was detected by m909-IgG antibody (Dimiter Dimitrov) conjugated to biotin (EZ-Link Biotinylation Kit, Thermo). To block Fc receptor binding, tumor cells were incubated with 50 ug/mL unlabeled human IgG (Jackson ImmunoResearch) for 10 min. 3-5 ug/mL m909-biotin or human IgG-biotin isotype control was added, and cells were labeled for 30 min at 4 degrees, washed with FACS buffer, and labeled with Streptavidin-APC (BD) for 25 min at 4 degrees. Cells were washed, resuspended with 7AAD, and analyzed by flow cytometry.
structure (smiles),measurement,setting,value
"CC1=C(/C=C/C(C)=C/C=C/C(C)=C/C(=O)O)C(C)(C)CCC1 [ATRA, all-trans retinoic acid]",IFNγ secretion by CAR T cells towards ATRA-treated AML cells,[1],enhances; also recorded: IFNγ production
same,immune recognition of ATRA-treated AML cells by FRβ CAR T cells,[1],increased immune recognition by FRβ CAR T cells; also recorded: increased immune recognition by m909 CAR T cells; also recorded: enhances FRβ-mediated m909 CAR T cell recognition; also recorded: increases immune recognition
same,FRβ expression on AML cells,[2],enhanced the intensity of FRβ expression on the AMLs; also recorded: increases FRβ expression; also recorded: enhanced surface expression of FRβ; also recorded: induced FRβ upregulation
